Source: US20160339057A1, “NOVEL COMPOSITION METHOD OF USING THE SAME FOR THE TREATMENT OF LYME DISEASE” (priority 2014, published 2016)

What was measured:
[1] = tested on: spirochetes of B. burgdorferi; assay: Susceptibility of spirochetes, dark-field microscopy; assay type: cell-based, Borrelia burgdorferi B31; conditions: most effective concentration (doxycycline: commonly tested concentration, 250 μg/ml), up to 7 days
Description: (§1) To determine what compound/mixture will inhibit visible growth of B. burgdorferi and B. garinii, a new and accepted micro-dilution method was used according to Sapi et al. Infection and Drug Resistance 2011. Briefly, sterile 1.5 ml test tightly caps screwed tubes containing 1 ml BSK-H medium, supplemented with the test compound of interest were inoculated with 2×10^6 CFU/ml of the homogenous bacterial suspension. The tubes were then incubated at 33° C. and growth was monitored at regular intervals for up to 72 h. The whole experiment was repeated three times for each strain and each concentration. Control cultures were treated with ethanol (i.e. 0.1-0.4 vol/vol) alone. For doxycycline, the final used concentration was 250 μg/m1. Cell growth was assessed by a bacterial Petroff-Hausser counting chamber after the 0 hour, 24 hrs, 48 hrs, 72 hrs and 7 days of incubation using dark field microscopy (direct cell counting), as a standard procedure.

[2] = tested on: spirochetes of B. garinii; assay: as above; assay type: cell-based, Borrelia garinii CIP103362; conditions: most effective concentration (doxycycline: commonly tested concentration, 250 μg/ml), up to 7 days
Description: as §1

[3] = tested on: rounded forms of B. burgdorferi; assay: Susceptibility of rounded forms, SYTO 9 / propidium iodide fluorescent microscopy; assay type: cell-based, Borrelia burgdorferi B31; conditions: most effective concentration, up to 7 days
Description: (§2) To determine what compound/mixture will have the bactericidal effect a fluorescence method was used according to Sapi et al. Infection and Drug Resistance 2011. Briefly, 2×10^6 CFU/ml of the homogenous bacterial suspension was inoculated into each sterile 1.5 ml test tightly caps screwed tubes containing 1 ml BSK-H medium, supplemented with the test compound/mixture of interest. Control cultures were treated with ethanol (i.e. 0.1-0.4 vol/vol) alone. For doxycycline, as a positive control, the final used concentration was 250 μg/m1. The tubes were then incubated at 33° C. and viability was monitored at regular intervals for up to 72 h. The whole experiment was repeated three times for each strain and each concentration. The susceptibility of spirochetes and round body forms to the test compound was then assessed after 24 h, 48 h, 72 h and 7 days by LIVE/DEAD® BacLight™ Bacterial Viability Assay using fluorescent microscopy, were the ratio of live (green) and dead (red) B. burgdorferi and B. garinii morphological forms were calculated.

[4] = tested on: rounded forms of B. garinii; assay: as above; assay type: cell-based, Borrelia garinii CIP103362; conditions: most effective concentration, up to 7 days
Description: as §2

[5] = tested on: biofilm of B. burgdorferi; assay: Biofilm on extracellular matrix proteins, crystal violet staining; assay type: cell-based, Borrelia burgdorferi B31; conditions: 5 extracellular matrix proteins, most effective concentration
Description: (§3) Qualitative effect of the test compounds against biofilm-like colonies of B. burgdorferi and B. garinii was evaluated using commonly used and well accepted crystal violet (CV) staining method, according to protocol provided by Sapi et al. Infection and Drug Resistance 2011. Briefly, for curable effect, 1×10^7 CFU/ml from homogeneous cultures of spirochetes were inoculated in extracellular matrix proteins (i.e. matrigel, collagen type I, fibrinogen, hyaluronan, and chondroitin sulfate) coated four-well chambers and incubated for 1 week, respectively. After the 1 week of incubation, biofilm-like colonies were treated with various compounds/mixtures. For preventive effect, 1×10^7 CFU/ml from homogeneous cultures of spirochetes complemented with various compounds/mixtures were inoculated in extracellular matrix proteins (i.e. matrigel, collagen type I, fibrinogen, hyaluronan, and chondroitin sulfate) coated four-well chambers and incubated for 1 week, respectively. Control wells were treated with ethanol (i.e. 0.1-0.4 vol/vol) alone. For doxycycline, as a positive control, the final used concentration was […]. The chambers were then incubated at 33° C. for 72 h. […] The biofilm-like colonies were carefully washed three times with 1×PBS and 1 ml of methanol was added to each well to extract a dye, which was measured at 595 nm wavelength.

biofilm of B. garinii = assay: as above; assay type: cell-based, Borrelia garinii CIP103362; conditions: 5 extracellular matrix proteins, most effective concentration
Description: as §3

Question: Which “decrease of amount of spiral forms” value [1] does the source give for `C[C@H]1c2cccc(O)c2C(=O)C2=C(O)[C@]3(O)C(=O)C(C(N)=O)=C(O)[C@@H](N(C)C)[C@@H]3[C@@H](O)[C@@H]21` [doxycycline] here?
Answer: 60-75%

Question: And the “decrease of amount of spiral forms” value [2]?
Answer: 60-75%

Question: And the “increase of dead of rounded forms” value [3]?
Answer: 5-10%

Question: And the “rounded forms formation generated” value [3]?
Answer: about 2 times

Question: And the “increase of dead of rounded forms” value [4]?
Answer: 5-10%

Question: What about the “rounded forms formation generated” value [4] of the same molecule?
Answer: about 2 times

Question: And the “biofilm eradicated (curable effect)” value ([5]; 3 days post-treatment)?
Answer: 5-40%

Question: And the “biofilm formation prevented (preventive effect)” value ([5]; after 7 days)?
Answer: 40-60%

Question: What about the “biofilm eradicated (curable effect)” value (biofilm of B. garinii; 3 days post-treatment) of the same molecule?
Answer: 5-40%

Question: What about the “biofilm formation prevented (preventive effect)” value (biofilm of B. garinii; after 7 days) of the same molecule?
Answer: 40-60%
